Several values for one entry are separate records, joined by “and”; a condition that tells them apart may be missing. Identical values can stand only once. Inconclusive results and toxic doses are left out. How the source made its calls: active means survival T/C of 150% or more; inactive means T/C below 125% in these data.
Test system: CD2F1 mice, L1210 leukemia ip, survival T/C
Assay: NCI In Vivo Anticancer Drug Screen. Data for tumor model L1210 Leukemia (intraperitoneal) in CD2F1 (CDF1) mice
Conditions: higher = longer survival
Method in brief: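 Ratio T/C, where T is the treated-group value and C the vehicle-dosed control value, from mice implanted with a transplantable tumor.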

[1] = endpoint: mean survival time, dose: 100.0 mg/kg/injection, schedule: Q01DX009 (ip), vehicle: saline with Tween-80
[2] = endpoint: mean survival time, dose: 200.0 mg/kg/injection, schedule: Q01DX009 (ip), vehicle: saline with Tween-80
[3] = endpoint: mean survival time, dose: 100.0 mg/kg/injection, schedule: Q04DX003 (ip), vehicle: saline with Tween-80
[4] = endpoint: mean survival time, dose: 200.0 mg/kg/injection, schedule: Q04DX003 (ip), vehicle: saline with Tween-80
[5] = endpoint: mean survival time, dose: 400.0 mg/kg/injection, schedule: Q04DX003 (ip), vehicle: saline with Tween-80
[6] = endpoint: mean survival time, dose: 100.0 mg/kg/injection, schedule: Q01DX001 (ip), vehicle: saline with Tween-80
[7] = endpoint: mean survival time, dose: 400.0 mg/kg/injection, schedule: Q01DX001 (ip), vehicle: saline with Tween-80

Measured: T/C

OC[CH2][Hg][Br]
inactive: endpoint: mean survival time, dose: 0.37 mg/kg/injection, schedule: Q01DX009 (ip), vehicle: saline 90 % of control | endpoint: mean survival time, dose: 0.75 mg/kg/injection, schedule: Q01DX009 (ip), vehicle: saline 92 % of control | endpoint: mean survival time, dose: 1.5 mg/kg/injection, schedule: Q01DX009 (ip), vehicle: saline 95 % of control | endpoint: mean survival time, dose: 3.0 mg/kg/injection, schedule: Q01DX009 (ip), vehicle: saline 93 % of control

c1ccc([Si]2(c3ccccc3)c3ccccc3-c3ccccc32)cc1
inactive: [1] 94 % of control | [2] 99 % of control

O=[N+]([O-])c1cccc(/C=C/C=C/c2ccc(Cl)c(S(=O)(=O)F)c2)c1
inactive: [1] 100 % of control | [3] 100 % of control | [2] 94 % of control | [4] 88 % of control | endpoint: mean survival time, dose: 400.0 mg/kg/injection, schedule: Q01DX009 (ip), vehicle: saline with Tween-80 97 % of control | [5] 90 % of control

[Cl][Cr][Cl].[NH-]CC[NH-].[NH-]CC[NH-]
inactive: endpoint: mean survival time, dose: 100.0 mg/kg/injection, schedule: Q04DX002 (ip), vehicle: saline 95 % of control | endpoint: mean survival time, dose: 200.0 mg/kg/injection, schedule: Q04DX002 (ip), vehicle: saline 95 % of control | endpoint: mean survival time, dose: 400.0 mg/kg/injection, schedule: Q04DX002 (ip), vehicle: saline 88 % of control

NC(CSC1c2ccccc2-c2ccccc21)C(=O)O (stereo not given)
inactive: endpoint: mean survival time, dose: 25.0 mg/kg/injection, schedule: Q01DX009 (ip), vehicle: saline 102 % of control | endpoint: mean survival time, dose: 50.0 mg/kg/injection, schedule: Q01DX009 (ip), vehicle: saline 103 % of control | endpoint: mean survival time, dose: 100.0 mg/kg/injection, schedule: Q01DX009 (ip), vehicle: saline 102 % of control | endpoint: mean survival time, dose: 200.0 mg/kg/injection, schedule: Q01DX009 (ip), vehicle: saline 96 % of control | endpoint: mean survival time, dose: 400.0 mg/kg/injection, schedule: Q01DX009 (ip), vehicle: saline 103 % of control

CSc1nc(N)c2c3c(N)ncnc3n(C3OC(CO)C(O)C3O)c2n1 (stereo not given)
inactive: endpoint: mean survival time, dose: 25.0 mg/kg/injection, schedule: Q01DX005 (ip), vehicle: distilled water + Tween-80 97 % of control | endpoint: mean survival time, dose: 50.0 mg/kg/injection, schedule: Q01DX005 (ip), vehicle: distilled water + Tween-80 91 % of control | endpoint: mean survival time, dose: 100.0 mg/kg/injection, schedule: Q01DX005 (ip), vehicle: distilled water + Tween-80 91 % of control | endpoint: mean survival time, dose: 200.0 mg/kg/injection, schedule: Q01DX005 (ip), vehicle: distilled water + Tween-80 97 % of control | endpoint: mean survival time, dose: 400.0 mg/kg/injection, schedule: Q01DX005 (ip), vehicle: distilled water + Tween-80 101 % of control

N#CCc1ccc(N=Nc2c(N)nc(N)nc2N)cc1
inactive: [3] 92 % of control | [4] 104 % of control | [5] 101 % of control

CCOC(=O)C(C)Oc1ccc(Cl)cc1 (stereo not given)
inactive: endpoint: mean survival time, dose: 25.0 mg/kg/injection, schedule: Q01DX009 (ip), vehicle: water 107 % of control | endpoint: mean survival time, dose: 50.0 mg/kg/injection, schedule: Q01DX009 (ip), vehicle: water 106 % of control | endpoint: mean survival time, dose: 100.0 mg/kg/injection, schedule: Q01DX009 (ip), vehicle: water 106 % of control | endpoint: mean survival time, dose: 200.0 mg/kg/injection, schedule: Q01DX009 (ip), vehicle: water 107 % of control | endpoint: mean survival time, dose: 400.0 mg/kg/injection, schedule: Q01DX009 (ip), vehicle: water 109 % of control

CC(=O)Nc1ccc(Br)cn1
inactive: [6] 97 % of control | endpoint: mean survival time, dose: 200.0 mg/kg/injection, schedule: Q01DX001 (ip), vehicle: saline with Tween-80 105 % of control | [7] 102 % of control

COc1cc2c(c(OC)c1OC)-c1ccc(SC)c(=O)cc1[C@@H](NC1OC(CO)C(O)C(O)C1O)CC2 (stereo not given in full)
inactive: endpoint: mean survival time, dose: 3.13 mg/kg/injection, schedule: Q01DX009 (ip), vehicle: saline 117 % of control

O=C1C=CC(=NS(=O)(=O)c2ccccc2)C=C1
inactive: endpoint: mean survival time, dose: 25.0 mg/kg/injection, schedule: Q01DX001 (ip), vehicle: other 93 % of control | endpoint: mean survival time, dose: 50.0 mg/kg/injection, schedule: Q01DX001 (ip), vehicle: other 95 % of control | endpoint: mean survival time, dose: 100.0 mg/kg/injection, schedule: Q01DX001 (ip), vehicle: other 104 % of control

Cc1cc(C)c(NC(=O)CC#N)c(C)c1
inactive: endpoint: mean survival time, dose: 25.0 mg/kg/injection, schedule: Q01DX009 (ip), vehicle: saline with Tween-80 88 % of control | endpoint: mean survival time, dose: 50.0 mg/kg/injection, schedule: Q01DX009 (ip), vehicle: saline with Tween-80 86 % of control | [1] 93 % of control

C=CC(C)(C)n1cc(C2=C(O)C(=O)C(c3cn(C(C)(C)C=C)c4ccccc34)=C(O)C2=O)c2ccccc21
inactive: endpoint: mean survival time, dose: 2.5 mg/kg/injection, schedule: Q01DX009 (ip), vehicle: Klucel (hydroxypropylcellulose) (HPC) 97 % of control | endpoint: mean survival time, dose: 2.5 mg/kg/injection, schedule: Q01DX009 (ip), vehicle: carboxymethylcellulose (CMC) 100 % of control | endpoint: mean survival time, dose: 5.0 mg/kg/injection, schedule: Q01DX009 (ip), vehicle: Klucel (hydroxypropylcellulose) (HPC) 93 % of control | endpoint: mean survival time, dose: 5.0 mg/kg/injection, schedule: Q01DX009 (ip), vehicle: carboxymethylcellulose (CMC) 100 % of control | endpoint: mean survival time, dose: 9.0 mg/kg/injection, schedule: Q01DX009 (ip), vehicle: carboxymethylcellulose (CMC) 96 % of control | endpoint: mean survival time, dose: 10.0 mg/kg/injection, schedule: Q01DX009 (ip), vehicle: Klucel (hydroxypropylcellulose) (HPC) 91 % of control | endpoint: mean survival time, dose: 10.0 mg/kg/injection, schedule: Q01DX009 (ip), vehicle: carboxymethylcellulose (CMC) 98 % of control | endpoint: mean survival time, dose: 18.0 mg/kg/injection, schedule: Q01DX009 (ip), vehicle: carboxymethylcellulose (CMC) 98 % of control | endpoint: mean survival time, dose: 20.0 mg/kg/injection, schedule: Q01DX009 (ip), vehicle: Klucel (hydroxypropylcellulose) (HPC) 93 % of control | endpoint: mean survival time, dose: 20.0 mg/kg/injection, schedule: Q01DX009 (ip), vehicle: carboxymethylcellulose (CMC) 98 % of control | endpoint: mean survival time, dose: 26.0 mg/kg/injection, schedule: Q01DX009 (ip), vehicle: carboxymethylcellulose (CMC) 94 % of control | endpoint: mean survival time, dose: 40.0 mg/kg/injection, schedule: Q01DX009 (ip), vehicle: Klucel (hydroxypropylcellulose) (HPC) 93 % of control | endpoint: mean survival time, dose: 40.0 mg/kg/injection, schedule: Q01DX009 (ip), vehicle: carboxymethylcellulose (CMC) 93 % of control | endpoint: mean survival time, dose: 60.0 mg/kg/injection, schedule: Q01DX009 (ip), vehicle: carboxymethylcellulose (CMC) 100 % of control | endpoint: median survival time, dose: 5.0 mg/kg/injection, schedule: Q01DX009 (ip), vehicle: Klucel (hydroxypropylcellulose) (HPC) 101 % of control | endpoint: median survival time, dose: 10.0 mg/kg/injection, schedule: Q01DX009 (ip), vehicle: Klucel (hydroxypropylcellulose) (HPC) 100 % of control and 102 % of control | endpoint: median survival time, dose: 20.0 mg/kg/injection, schedule: Q01DX009 (ip), vehicle: Klucel (hydroxypropylcellulose) (HPC) 97 % of control and 100 % of control | endpoint: median survival time, dose: 40.0 mg/kg/injection, schedule: Q01DX009 (ip), vehicle: Klucel (hydroxypropylcellulose) (HPC) 115 % of control and 109 % of control

O=[N+]([O-])c1cccc(Cc2nc3ccccc3nc2-c2ccccc2)c1
inactive: [6] 94 % of control | [7] 91 % of control

CC1(C)CC(=O)C2=C(C1)OC1(O)CC(C)(C)CC(=O)C1C2c1ccccc1[N+](=O)[O-] (stereo not given)
inactive: endpoint: mean survival time, dose: 3.13 mg/kg/injection, schedule: Q01DX001 (ip), vehicle: saline with Tween-80 103 % of control | endpoint: mean survival time, dose: 3.13 mg/kg/injection, schedule: Q01DX009 (ip), vehicle: saline with Tween-80 100 % of control | endpoint: mean survival time, dose: 6.25 mg/kg/injection, schedule: Q01DX001 (ip), vehicle: saline with Tween-80 90 % of control | endpoint: mean survival time, dose: 6.25 mg/kg/injection, schedule: Q01DX009 (ip), vehicle: saline with Tween-80 107 % of control | endpoint: mean survival time, dose: 12.5 mg/kg/injection, schedule: Q01DX001 (ip), vehicle: saline with Tween-80 97 % of control | endpoint: mean survival time, dose: 12.5 mg/kg/injection, schedule: Q01DX009 (ip), vehicle: saline with Tween-80 97 % of control | [6] 87 % of control

From PubChem BioAssay AID256 (DTP/NCI, 2004)
